Experiment [1] concerns the target T1, D-amino acid oxidase (DAO; EC-1.4.3.3) from Rhodotorula gracilis ATCC 26217 (Rhodotorula toruloides, UniProt P80324).
T1 construct: production of Rhodotorula gracilis cells of high DAO enzyme content; made in house; host or cells: Rhodotorula gracilis ATCC 26217 (natural producer, aerobic fermentation)
T1 sequence (P80324 25-368): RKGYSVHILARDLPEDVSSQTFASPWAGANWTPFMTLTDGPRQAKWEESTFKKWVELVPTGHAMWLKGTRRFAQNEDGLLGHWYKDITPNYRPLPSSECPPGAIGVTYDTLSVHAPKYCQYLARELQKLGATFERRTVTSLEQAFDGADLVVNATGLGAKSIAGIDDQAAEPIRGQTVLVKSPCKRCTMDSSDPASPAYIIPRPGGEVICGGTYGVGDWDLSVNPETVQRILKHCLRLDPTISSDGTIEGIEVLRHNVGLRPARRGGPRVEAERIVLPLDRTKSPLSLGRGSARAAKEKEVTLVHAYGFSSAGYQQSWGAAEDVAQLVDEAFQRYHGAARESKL
The experiment is described as follows: Substrate specificity (Km) of D-amino acid oxidase. The conditions noted are these: compared with D-alanine, the specific substrate for this enzyme. The format is biochemical. Here is the method: The activity of the D-amino acid oxidase enzyme is evaluated by measuring the H2 O2 quantity evolved on reacting the enzyme on a substrate of D-alanine in 100 mM phosphate buffer at pH 7.5 saturated with oxygen at 37° C.
The H2 O2 is determined kinetically using a peroxidase-based reactant, 4-aminophenazone and 2,4-dichlorophenolsulphonate by the modified Trinder reaction (J. Clin. Path. 22, 246, 1969). The red colour which forms (quinonimine) is proportional to the hydrogen peroxide evolved in the test and is measured spectrophotometrically at 510 nm.
One unit of D-amino acid oxidase is that quantity of enzyme (free or immobilized) which under the conditions used in the method produces one μmole of H2 O2 per minute.

Experiment [2] concerns the target T1, D-amino acid oxidase (DAO; EC-1.4.3.3) from Rhodotorula gracilis ATCC 26217. In words: Dissociation constant of the FAD cofactor from D-amino acid oxidase. It is filed as binding. The conditions noted are these: read-out: dissociation constant (bond with the FAD).

SMILES strings stand for the structures.

For the compound `CC(=O)OCC1=C(C(=O)O)N2C(=O)[C@@H](NC(=O)CCC[C@@H](N)C(=O)O)[C@H]2SC1` [Cephalosporin C], the Km entry in experiment [1] is given as “very similar to those encountered for D-alanine”.

For `Cc1cc2nc3c(=O)[nH]c(=O)nc-3n(C[C@H](O)[C@H](O)[C@H](O)COP(=O)(O)OP(=O)(O)OC[C@H]3O[C@@H](n4cnc5c(N)ncnc54)[C@H](O)[C@@H]3O)c2cc1C` [FAD], the Kd in experiment [2] turned out to be 22 nM.
